Ten compounds from patent US20230357870A1 (priority 2020, published 2023) can be followed below.

Data set [1] concerns T7-scv2-luc-GFP replicon (SEQ ID NO: 2). The data set is described as follows: microbe, parasite or virus in culture. It is filed as cell-based, SARS-CoV-2.
The subject of data set [2] is T7GG-scv2-luc-GFP replicon. As to the kind of experiment: microbe, parasite or virus in culture. The class given is cell-based, SARS-CoV-2.
Data set [3] concerns pSmart BAC T7-mcv-replicon. The data set is described as follows: microbe, parasite or virus in culture. The class given is cell-based, MERS. The note with it: for EC50: read-out: Antiviral activity (EC50) against T7-mcv-replicon. A general note: A replicon is a self-replicating genome or part of one, used to study replication in cells.
Data set [4] deals with pSmart BAC T7-scv2-replicon. As to the kind of experiment: microbe, parasite or virus in culture. It is filed as cell-based, SARS-CoV-2. The note with it: read-out: Antiviral activity (EC50) against T7-scv2-replicon.
Data set [5] has as its system pSmart BAC T7-scv1-replicon. The data set is described as follows: microbe, parasite or virus in culture. It is filed as cell-based, SARS-CoV-1. The note with it: read-out: Antiviral activity (EC50) against T7-scv1-replicon.
Where [6] appears, read: Severe acute respiratory syndrome coronavirus 2, A549.
Where [7] appears, read: Severe acute respiratory syndrome coronavirus 2, Calu-1.
Setting [8] is: Severe acute respiratory syndrome coronavirus 2, HEK-293T.
Setting [9] is: Severe acute respiratory syndrome coronavirus 2, Vero.
The mark [10] stands for this setting: Middle East respiratory syndrome-related coronavirus, HEK-293T.
Where [11] appears, read: Severe acute respiratory syndrome coronavirus 2, Huh7.5.
Setting [12] is: Severe acute respiratory syndrome coronavirus, HEK-293T.

Entries after “also recorded” stand apart in the source; their conditions may differ. Where two headings read alike, the source gives them in different places.

For `CC(C)C[C@H](NC(=O)c1cc2ccccc2o1)C(=O)N[C@H]1CC[C@@H](C)N(S(=O)(=O)c2ccccn2)CC1=O` [Relacatib, relacatib], the EC50 in data set [1] (setting [6]), in data set [1] (setting [7]), in data set [1] (setting [8]), in data set [1] (setting [9]) and in data set [2] (setting [8]) was > 42 µM in each case.
Take `CN(C)C(=O)COC(=O)Cc1ccc(OC(=O)c2ccc(NC(=N)N)cc2)cc1` [Camostat, camostat]: the EC50 in data set [1] (setting [6]), in data set [1] (setting [7]), in data set [1] (setting [8]), in data set [1] (setting [9]) and in data set [2] (setting [8]) was > 42 µM throughout.
Regarding GC373, the EC50 – broadly, the concentration that produces a half-maximal response – worked out at 0.0292 ± 0.0037 µM in data set [3], 0.0197 ± 0.0046 µM in data set [4] and 0.074 ± 0.0045 µM in data set [5].
As for `N#C[C@@]1(c2ccc3c(N)ncnn23)O[C@H](CO)[C@@H](O)[C@H]1O` [GS-441524], the “concentration to achieve 50% inhibition, MERS replicon compared with SARS-CoV-2 or SARS-CoV-1 replicon” value in data set [3] is given as “greater concentration”. Besides, the concentration giving a half-maximal response (EC50) amounted to 5.58 ± 0.357 µM in data set [3] (setting [10]); 0.603 ± 0.105 µM in data set [4] (setting [8]); 1.47 ± 0.163 µM in data set [1] (setting [6]); 1.33 ± 0.27 µM in data set [1] (setting [7]); 0.603 ± 0.131 µM in data set [1] (setting [8]); 0.645 ± 0.0543 µM in data set [1] (Severe acute respiratory syndrome coronavirus 2, HEK-293T, 30 h, read-out: potency in inhibiting SARS-CoV-2 replicon replication (EC50), determined by % GFP signal). Also, the concentration giving a half-maximal response (EC50) in data set [1] (Severe acute respiratory syndrome coronavirus 2, HEK-293T, 30 h, read-out: potency in inhibiting SARS-CoV-2 replicon replication (EC50), determined by % luciferase activity) amounted to 0.502 ± 0.109 µM; in data set [1] (setting [11]), 1.03 ± 0.354 µM; in data set [1] (setting [9]) it was 0.302 ± 0.0198 µM; in data set [5] (setting [12]), 1.11 ± 0.0865 µM; in data set [2] (setting [6]), 0.716 ± 0.311 µM; in data set [2] (setting [7]), 1 ± 0.217 µM. The figures for the EC50 in data set [2] (setting [8]), in data set [2] (setting [11]) and in data set [2] (setting [9]) were 0.657 ± 0.0664 µM, 0.831 ± 0.201 µM and 0.324 ± 0.173 µM, respectively. Besides, the “antiviral activity (in words)” value in data set [2] is “active”. In the data set with 293T cells, the cytotoxicity entry is on record as “No cytotoxicity was detected”.
On to `Cc1cccc(/C=N/Nc2cc(N3CCOCC3)nc(OCCc3ccccn3)n2)c1` [Apilimod, apilimod], for which the 50% effective concentration (EC50) in data set [1] (setting [7]), in data set [1] (setting [11]) and in data set [2] (setting [8]) was > 42 µM each time.
As to `CCC(CC)COC(=O)[C@H](C)N[P@](=O)(OC[C@H]1O[C@@](C#N)(c2ccc3c(N)ncnn23)[C@H](O)[C@@H]1O)Oc1ccccc1` [Remdesivir, remdesivir], the concentration giving a half-maximal response (EC50) worked out at 0.0815 ± 0.0088 µM in data set [3] (setting [10]); 0.0156 ± 0.0051 µM in data set [4] (setting [8]); 0.184 µM in data set [1] (setting [6]); 0.0628 µM in data set [1] (setting [7]); 0.0113 µM in data set [1] (setting [8]); 0.0189 µM in data set [1] (setting [11]). Also, the results for the half-maximal effective concentration (EC50) in data set [1] (setting [9]) and in data set [5] (setting [12]) were 2.24 µM and 0.0429 ± 0.0034 µM, respectively.
Consider PF-00835231, for which the EC50 came out at 0.101 ± 0.033 µM in data set [3], 0.0748 ± 0.02 µM in data set [4] and 0.167 ± 0.0153 µM in data set [5]. In data set [2], the “fold lower in Vero cells” value was 75-300 fold.
For `N=C(N)c1ccc2cc(OC(=O)c3ccc(N=C(N)N)cc3)ccc2c1` [Nafamostat, nafamostat], the EC50 is > 42 µM in data set [1] (setting [6]); > 42 µM in data set [1] (setting [7]); > 42 µM in data set [1] (setting [8]); > 42 µM in data set [1] (Severe acute respiratory syndrome coronavirus 2, Vero C1008); > 42 µM in data set [2] (setting [8]).
In the case of GC376, the EC50 in data set [3] came out at 0.0352 ± 0.0053 µM; in data set [4], 0.0208 ± 0.0056 µM; in data set [1] (read-out: potency in inhibiting SARS-CoV-2 replicon replication (EC50), determined by % GFP signal), 0.022 ± 0.00513 µM; in data set [1] (read-out: potency in inhibiting SARS-CoV-2 replicon replication (EC50), determined by % luciferase activity), 0.0292 ± 0.00917 µM; in data set [5], 0.0759 ± 0.0232 µM. Further, the “antiviral activity (in words)” value in data set [2] is “highly potent; also recorded: modestly active”. For the same compound, the cytotoxicity entry with 293T cells is “No cytotoxicity was detected”.
For `CC(C)(C)NC(=O)N[C@H](C(=O)N1C[C@H]2[C@@H]([C@H]1C(=O)NC(CC1CCC1)C(=O)C(N)=O)C2(C)C)C(C)(C)C` (stereo partly shown) [MK-3034, Boceprevir], the EC50 in data set [3] (setting [10]) was 4.67 ± 0.519 µM; in data set [4] (setting [8]) it was 3.55 ± 0.347 µM; in data set [5] (setting [12]), 6.41 ± 0.427 µM.
